Values of other authors as cited in patent publication US20140271816A1, “TREATMENT OF POTENTIAL PLATELET AGGREGATION WITH LIPOSOMALLY FORMULATED GLUTATHIONE AND CLOPIDOGREL” (priority 2013, published 2014).
Where two headings read alike, the source gives them in different places.

Legend:
[1] = rat; for toxin remaining: Co-60 in liver
[2] = humans, plain non-formulated glutathione
[3] = oral, 75 mg clopidogrel (base)

Q: Which toxin remaining ([1]; intravenous administration) does the source give for `N[C@@H](CCC(=O)N[C@@H](CS)C(=O)NCC(=O)O)C(=O)O` [Plain glutathione, reduced glutathione] here?
A: 36%

Q: What about the toxin remaining ([1]; oral administration) of the same compound?
A: 100%

Q: And the “removal of toxin / radiotagged marker (Co-60) from the liver” value (“removal of toxin / radiotagged marker” below) ([1]; intravenous administration)?
A: 64%

Q: What about the “removal of toxin / radiotagged marker” value ([1]; oral administration) of the same compound?
A: 0%

Q: What about the “removal of toxin / radiotagged marker” value ([1]; oral administration, listed as plain GSH) of the same compound?
A: no function

Q: And the “absorption after oral administration” value ([2]; listed as glutathione)?
A: not absorbed well

Q: What about the “absorption after oral administration” value ([2]; listed as plain GSH) of the same compound?
A: not absorbed

Q: And the “absorption after oral administration” value ([2]; listed as plain glutathione)?
A: not absorbed

Q: What about the “rank as reducing agent needed to form the active metabolites of clopidogrel” value (ex vivo studies) of the same compound?
A: best reducing agent

Q: For `CC(=O)N[C@@H](CS)C(=O)O` [NAC, N-Acetyl cysteine], which “activity in forming the AM relative to GSH” value (percent of the activity of GSH) is on record?
A: less than 10%

Q: For `COC(=O)[C@H](c1ccccc1Cl)N1CCc2sccc2C1` [Clopidogrel, clopidogrel], which “peak plasma levels of the main circulating metabolite” value [3] is on record?
A: approx. 3 mg/L

Q: And the “time of peak plasma levels after dosing” value ([3]; main circulating metabolite)?
A: approximately one
